Entries after “also recorded” stand apart in the source; their conditions may differ.

One data set relates to human fibroblasts. Briefly: Protection from peroxide-induced cell death. It counts as cell-based. The following applies: for protection from H2O2-induced apoptosis: FIG. 22. The procedure: Its activity was compared to the one of the most efficient MTA-SkQR1. The experiment was performed according to Antonenko et al., (Biochem. (Mosc.) (2008) 73:1273-1287 and the results are shown in FIG. 11.
The experiment was performed according to Antonenko et al., (Biochem. (Mosc.) (2008) 73:1273-1287. (see FIG. 12).
These experiments were performed as described in Antonenko et al (2008).

The test system of data set [1] is electron transport chain (ETC) of mitochondria isolated from rat heart.
The next data set deals with rat liver mitochondria. The data set can be described thus: H2O2 formation by rat liver mitochondria (prooxidant effect, Amplex Red). Format: biochemical. The following applies: up to 15 um concentrations in the medium; FIG. 15. The procedure: Incubation medium contained 0.18 M mannitol, 0.07 M sucrose, 0.2 mM Tris-phosphate, 0.5 mM EGTA, pH 7.2, 20 mM Tris-succinate, 2 uM Amplex Red, 5 U horseradish Peroxidase, 6 mM aminotriazole (an inhibitor of catalase) and mitochondria corresponding to 0.25 mg protein. Excitation wavelength was of 563 nm, Emission wavelength was of 585 nm.

Data set [2] deals with Y. lipolytica mitochondria. Briefly: H2O2 formation by Y. lipolytica mitochondria (Amplex red). Format: biochemical. As to conditions: for rate of H2O2 formation by Y. lipolytica mitochondria: certain concentrations, 0.1 mg mitochondrial protein, FIG. 13, 14. The procedure:
The experiment was performed in the following conditions: incubation medium contained 0.6 M mannitol, 20 mM Tris-succinate,0.5 mM EGTA, 0.2 mM Tris-phosphate, pH 7.2, 2 uM Amplex red, horse radish peroxidase (5 U) and mitochondria corresponding to 0.1 mg protein. […] Measurements were made using absorption/emission 530/590 nm.

The subject of data set [3] is mitochondria. As to conditions: mitochondria supplemented with certain concentrations of SkQT; FIG. 8. The source says: Several compounds according to the invention were synthesized as described above and tested for biological activity as described in Antonenko et al., (Biochem. (Mosc.) (2008) 73:1273-1287).
In data set [4] the test system is multi-drug resistance (MDR) proteins in HeLa cells. Briefly: Accumulation of SkQ variants in HeLa cells / expulsion by MDR pumps (flow cytometry). It counts as cell-based, human. As to conditions: for order of decreasing MDR-affinity: correlation suggested by the example; for accumulation in HeLa cells after MDR inhibitor: 100 nM SkQs, Pluronic L61 30 ug/ml added 10 minutes before, FIG. 17. The procedure: In the following experiment we have evaluated MDR expulsion of a timoquinone based SkQRT. HeLa cells were treated with 100 nM SkQRT and the activity of multidrug resistance pumps was estimated by fluorescence measurement using a Beckman Coulter FC 500 flow cytometer. […] Cells were incubated with 100 nM SkQs. After 60 minute, the medium was changed to control medium without SkQs (indicated with vertical line). […] It must be noted that MDR pumps are usually activated in tumor cells (for example HeLa), but not in normal non-malignant cells (fibroblasts or 3T3 cells).

For another data set, the system named is energized mitochondria. Briefly: Reduction of SkQB by energized mitochondria. It counts as biochemical. As to conditions: FIG. 19.
The test system of data set [5] is mitochondria. The data set can be described thus: Hydrogen peroxide production by mitochondria in the presence of antimycin A. Format: biochemical. As to conditions: FIG. 21. The source says: In the next experiment we measured hydrogen peroxide production by mitochondria in the presence of antimycin A (as described in Skulachev et al 2010, Biochim Biophys Acta, 1797(6-7), 878-8).

A further data set deals with isolated mitochondria. The data set can be described thus: Antioxidant activity in isolated mitochondria damaged by the Fenton reaction. As to conditions: FIG. 20. The procedure: Antioxidant activity was measured in isolated mitochodnria subjected to oxidative damage by the Fenton reaction (method described in Antonenko et al 2008).
For data set [6], the system named is primary cultured human fibroblasts. Briefly: Accumulation in primary cultured human fibroblasts (non-tumor cells). As to conditions: FIG. 18. Format: cell-based.

Consider “10-(2-methyl-1,4-benzoquinonyl-5)decyltriphenylphosphonium bromide [SkQT]”, for which, in the data set with human fibroblasts (FIG. 11), the “prevention of peroxide-induced cell death” value is on record as “very efficient”. In the data set with human fibroblasts (FIG. 12), the “protection from H2O2-induced cell death by different dosages” value was “protection of human fibroblasts”. Further, in the data set with human fibroblasts, the “protection from H2O2-induced apoptosis” value was “good protection”. The “effect of myxothiasole on reduction of the quinone form” value in data set [1] (1 uM myxothiasole added at 10 min point, FIG. 10) is given as “prevented further reduction”. Also, in data set [1] (rat heart mitochondria 0.05 mg/ml, 5 mM succinate, 2 uM rotenone, 100 nM SkQT, FIG. 9), the reduction by mitochondria entry was “can be reduced by mitochondria”. Besides, the “prooxidant effect: stimulation of H2O2 formation by rat liver mitochondria at high concentrations” value in the data set on rat liver mitochondria is listed as “did not stimulate H202 formation”. The “rate of H2O2 formation by Y. lipolytica mitochondria” value in [2] is on record as “dramatically decrease”. The “window between lowest and highest no effect doses” value in data set [2] (compared with SkQ1, biological examples 5 and 6) is “much wider”. For the same compound, the “hydrogen peroxide formation by mitochondria at optimal concentration” value in data set [2] (optimal concentration, biological examples 5 and 6) is “almost completely prevented hydrogen peroxide formation”. Moreover, the “protection of mitochondria from oxidative damage (malondialdehyde concentration)” value in the data set with mitochondria [3] was “successfully protected mitochondria from oxidative damage”.

In the case of `CC1=C(C)C(=O)C(CCCCCCCCCC[P+](c2ccccc2)(c2ccccc2)c2ccccc2)=CC1=O.[Br-]` [SkQ1, reference compound], the “protection from H2O2-induced apoptosis” value in the data set with human fibroblasts is “good protection”. Moreover, in [4], the “order of decreasing MDR-affinity” value was “SkQB>SkQT>SkQ1>SkQ3”. For the same compound, the “prooxidant effect: stimulation of H2O2 formation by rat liver mitochondria at high concentrations” value in the data set on rat liver mitochondria is given as “prooxidant effect”. The “rate of H2O2 formation by Y. lipolytica mitochondria” value in data set [2] is listed as “considerably lower”.

Take `CC1=C(C)C(=O)C(CCCCCCCCCC[P+](c2ccccc2)(c2ccccc2)c2ccccc2)=C(C)C1=O` [SkQ3]: in data set [4], the “order of decreasing MDR-affinity” value is on record as “SkQB>SkQT>SkQ1>SkQ3”.

As to `O=C1C=CC(=O)C(CCCCCCCCCC[P+](c2ccccc2)(c2ccccc2)c2ccccc2)=C1` [SkQB, 10-(1,4-benzoquinonyl-2)decyltriphenylphosphonium bromide], in the data set with human fibroblasts, the “protection from H2O2-induced apoptosis” value is recorded as “weak protection”. In addition, the “order of decreasing MDR-affinity” value in data set [4] was “SkQB>SkQT>SkQ1>SkQ3”. Also, the “reduction by energized mitochondria” value in the data set on energized mitochondria is on record as “can be reduced by energized mitochondria in an antimycin-sensitive way”. The “hydrogen peroxide production (pro-oxidant activity)” value in the data set with mitochondria [5] is reported as “pronounced pro-oxidant activity; also recorded: to a greater extent than SkQ1”. Moreover, the antioxidant activity entry in the data set with isolated mitochondria is given as “very weak antioxidant activity; also recorded: lower compared to SkQ1”.

As to `CC/N=c1/cc2oc3cc(NCC)c(C)cc3c(-c3ccccc3C(=O)OCCCCCCCCCCC3=CC(=O)C(C)=C(C)C3=O)c-2cc1C` [SkQR1, reference compound], in data set [4], the “accumulation in HeLa cells after MDR inhibitor” value is “increased accumulation”. In addition, the “accumulation in human fibroblasts, SkQR1 compared with SkQRT1” value in data set [6] was “no significant difference”.

As to `CCN=c1cc2oc3cc(NCC)c(C)cc3c(-c3ccccc3C(=O)OCCCCCCCCCCC3=CC(=O)C(C)=CC3=O)c-2cc1C` [SkQRT1, 10-(2-methyl-1,4-benzoquinonyl-5)-decyl ester of rhodamine 19], the “accumulation in HeLa cells after MDR inhibitor” value in [4] is given as “increased accumulation”. Further, the “accumulation in human fibroblasts, SkQR1 compared with SkQRT1” value in data set [6] is on record as “no significant difference”.

For the origin of these results see patent publication US20160279154A1, “MITOCONDRIALLY-TARGETED TIMOQUINONES AND TOLUQUINONES” (MITOTECH SA, priority 2014, published 2016).
